Entries after “also recorded” stand apart in the source; their conditions may differ. Read-outs that look alike come from different tables or passages of the source. Each block holds one compound with its values, some of them ahead of it.
Assays:
T. foetus HGXPRT = target: T1, T. foetus HGXPRT (Tritrichomonas foetus, UniProt P51900); experiment: Spectrophotometric enzyme assay, recombinant T. foetus HGXPRT; type: biochemical; settings: for increase in affinity for T. foetus HGXPRT (lower IC50) compared to compound Ia(1): relative to compound Ia(1); for potency of combined 2-methyl / benzyl-substituted inhibitors relative to parent inhibitors: compared with Ia(4), Ia(5), Ia(6)
T1 construct: made in house; host or cells: E. coli strain SØ606 transformed with pBTfprt
T1 sequence (P51900 1-183): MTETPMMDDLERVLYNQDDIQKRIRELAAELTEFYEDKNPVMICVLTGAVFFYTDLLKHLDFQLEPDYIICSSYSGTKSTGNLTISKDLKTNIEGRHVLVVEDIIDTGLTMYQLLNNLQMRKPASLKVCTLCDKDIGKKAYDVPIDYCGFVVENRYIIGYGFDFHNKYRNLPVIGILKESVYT
Protocol: (§1) Enzyme Assays: Recombinant T. foetus HGXPRT and human HGPRT were isolated from E. coli strain S.O slashed.606, transformed with pBTfprt and pBAcprt expression plasmids, respectively (Chin, et al., Mol. Biochem. Parasitol. 63:221-229 (1994); Kanaaneh, et al., Eur. J. Biochem. 223:595-601 (1994)). Spectrophotometric enzyme assays were performed as described in Yuan, et al., Biochemistry 31:806-810 (1992). The compounds tested were dissolved in DMSO-d6, and concentrations were determined by integration of NMR peaks with methylene chloride as an internal standard. The concentration of DMSO in the assays was kept at 10%.

human HGPRT = target: T2, human HGPRT (Homo sapiens, UniProt P00492); experiment: Spectrophotometric enzyme assay, recombinant human HGPRT; type: biochemical; settings: for IC50: Table 2, read-out: IC50, Human HGXPRT; for selectivity for T. foetus HGXPRT over human HGPRT: ratio of human HGPRT to T. foetus HGXPRT inhibition
T2 construct: made in house; host or cells: E. coli strain SØ606 transformed with pBAcprt
T2 sequence (P00492 1-218): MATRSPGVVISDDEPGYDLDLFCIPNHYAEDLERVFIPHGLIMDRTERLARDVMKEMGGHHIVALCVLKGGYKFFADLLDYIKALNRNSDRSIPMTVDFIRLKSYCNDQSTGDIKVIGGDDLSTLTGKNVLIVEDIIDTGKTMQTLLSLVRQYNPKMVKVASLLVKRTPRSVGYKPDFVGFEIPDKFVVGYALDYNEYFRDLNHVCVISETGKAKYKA
Protocol: as §1

[1] = test system: T. foetus strain kv1 trophozoites; experiment: Cell culture assay, in vitro growth of T. foetus; type: cell-based, Tritrichomonas foetus; settings: for IC50: Tritrichomonas foetus
Protocol: Cell Culture Assays: T. foetus strain kv1 trophozoites were cultivated in Diamond's TYM medium at 37° C. Cell densities in time samples were determined using a hemocytometer. The concentration of DMSO in culture medium was maintained at or below 1%, which had no apparent effect on cell growth.
Indeed, compound Ia(5)-induced inhibition of T. foetus growth was reversed by increasing the concentration of hypoxanthine in the growth medium. A minimum hypoxanthine concentration between 0.2 and 0.5 mM was required for the survival of the cells challenged with 5 μM of compound Ia(5). Hypoxanthine at concentrations>1 mM essentially abolished any inhibition of cell proliferation under these experimental conditions.

[2] = Table 1, 10% DMSO, read-out: IC50, Inhibition of T. foetus HGXPRT
[3] = Table 1, Diamond's TYM medium, 37° C., DMSO at or below 1%, read-out: ED50, in vitro growth of T. foetus
[4] = read-out: IC50 values, T. foetus HGXPRT

IC50 (T. foetus HGXPRT; [4]): 16 µM
IC50 [1, 3]: 19 µM
Compound: O=C(Nc1cccc(OCc2ccccc2)c1)c1ccc2c(c1)C(=O)NC2=O [Compound Ia(1)]

IC50 (T. foetus HGXPRT; [2]): 8 µM
Compound: O=C(Nc1cc(OCc2ccccc2)ccc1Cl)c1ccc2c(c1)C(=O)NC2=O [Ia(3), (4'-Phthalimido)Carboxamido-3-Benzyloxy-6-Chlorobenzene]

IC50 (T. foetus HGXPRT; [2]): 3 µM
IC50 (human HGPRT): > 50 µM
selectivity for T. foetus HGXPRT over human HGPRT (human HGPRT): approximately 100 fold
IC50 [1, 3]: 3.9 µM
Compound: Cc1c(NC(=O)c2ccc3c(c2)C(=O)NC3=O)cccc1OCc1ccccc1 [Ia(4)]

IC50 (T. foetus HGXPRT; [2]): 53 µM
Compound: CN(Cc1ccccc1NC(=O)c1ccc2c(c1)C(=O)NC2=O)C1CCCCC1 [Ic(1)]

IC50 (T. foetus HGXPRT; [2]): 7.1 µM
Compound: O=C(Nc1cccc(OCc2cc(Cl)ccc2Cl)c1)c1ccc2c(c1)C(=O)NC2=O [Ia(14)]

IC50 (T. foetus HGXPRT; [2]): 8.9 µM
Compound: O=C(Nc1cccc(OCc2cccc(I)c2)c1)c1ccc2c(c1)C(=O)NC2=O [Ia(9)]

IC50 (T. foetus HGXPRT; [2]): 8.2 µM
Compound: COc1cc(COc2cccc(NC(=O)c3ccc4c(c3)C(=O)NC4=O)c2)cc(OC)c1 [Ia(7)]

IC50 (T. foetus HGXPRT; [2]): 12.1 µM
Compound: O=C(Nc1cccc(OCc2c(Cl)cccc2Cl)c1)c1ccc2c(c1)C(=O)NC2=O [Ia(13)]

IC50 (T. foetus HGXPRT; [4]): 5 µM
Compound: O=C(Nc1cccc2c1C(=O)NC2=O)c1ccc2c(c1)C(=O)NC2=O [Id(1)]

IC50 (T. foetus HGXPRT; [2]): 28 µM
Compound: Cc1cc(COc2ccccc2)cc(NC(=O)c2ccc3c(c2)C(=O)NC3=O)c1 [Ia(2), (4'-Phthalimido)Carboxamido-3-Methyl-5-Phenoxymethylbenzene]

The next lines start with the compound.

Compound: O=C(Nc1cccc(OCc2ccc(Br)cc2)c1)c1ccc2c(c1)C(=O)NC2=O [Compound Ia(5), (4'-phthalimido)carboxamido-3-(4-bromobenzyloxy)-benzene]
IC50 (T. foetus HGXPRT; [2]): 1.5 µM
Ki (T. foetus HGXPRT; competitive with respect to guanine, read-out: K (inhibition constant) with respect to guanine, T. foetus HGXPRT): 0.49 µM
increase in affinity for T. foetus HGXPRT (lower IC50) compared to compound Ia(1) (T. foetus HGXPRT): 10 fold
mode of inhibition of T. foetus HGXPRT (T. foetus HGXPRT; with respect to guanine): competitive inhibitor; also recorded: competitive mode of inhibition
IC50 (human HGPRT): 45 µM
selectivity for T. foetus HGXPRT over human HGPRT (human HGPRT): 30 fold
concentration dependence of inhibition of T. foetus growth in culture [1]: concentration-dependent
IC50 ([1]; read-out: ED50, growth of cultured T. foetus cells): 2.8 µM
hypoxanthine concentration that essentially abolished any inhibition of cell proliferation ([1]; cells challenged with 5 μM of compound): > 1 mM
reversal of growth inhibition by exogenous hypoxanthine ([1]; increasing hypoxanthine in the growth medium): reversed

Compound: O=C(Nc1cccc(OCc2ccc(Cl)c(Cl)c2)c1)c1ccc2c(c1)C(=O)NC2=O [Compound Ia(12)]
IC50 (T. foetus HGXPRT; [2]): 3.5 µM
increase in affinity for T. foetus HGXPRT (lower IC50) compared to compound Ia(1) (T. foetus HGXPRT): ~5 fold
IC50 (human HGPRT): 24 µM
IC50 [1, 3]: 4.6 µM

Compound: Cc1c(NC(=O)c2ccc3c(c2)C(=O)NC3=O)cccc1OCc1ccc(Br)cc1 [Ia(15)]
IC50 (T. foetus HGXPRT; [2]): 5.2 µM
potency of combined 2-methyl / benzyl-substituted inhibitors relative to parent inhibitors (T. foetus HGXPRT): less potency

Compound: Cc1ccc(COc2cccc(NC(=O)c3ccc4c(c3)C(=O)NC4=O)c2)cc1 [Ia(6)]
IC50 (T. foetus HGXPRT; [2]): 1.7 µM
increase in affinity for T. foetus HGXPRT (lower IC50) compared to compound Ia(1) (T. foetus HGXPRT): 10 fold

Compound: CCN(CC)S(=O)(=O)c1ccc(OC)c(NC(=O)c2ccc3c(c2)C(=O)NC3=O)c1 [Ib(1)]
IC50 (T. foetus HGXPRT; [2]): 33 µM
IC50 [1, 3]: 39 µM

Compound: Cc1c(NC(=O)c2ccc3c(c2)C(=O)NC3=O)cccc1OCc1ccc(Cl)c(Cl)c1 [Ia(16)]
IC50 (T. foetus HGXPRT; [2]): 9.3 µM
potency of combined 2-methyl / benzyl-substituted inhibitors relative to parent inhibitors (T. foetus HGXPRT): less potency

Compound: O=C(Nc1ccc(Cl)c(Cl)c1)c1ccc2c(c1)C(=O)NC2=O [(4'-phthalimido)carboxamido-3,4-dichlorobenzene, reference compound]
activity on HGXPRT compared with 5-[N-(3,4-dichlorophenyl)carbamoyl]-1,3-isobenzofurandione (T. foetus HGXPRT; comparison of the phthalimide with its phthalic anhydride analog): equally active

Compound: O=C(Nc1cccc(OCc2ccccc2I)c1)c1ccc2c(c1)C(=O)NC2=O [Ia(10)]
IC50 (T. foetus HGXPRT; [2]): 4.3 µM
IC50 (human HGPRT): > 50 µM
selectivity for T. foetus HGXPRT over human HGPRT (human HGPRT): approximately 100 fold
IC50 [1, 3]: 5.1 µM

— US6221877A, “Substituted 4-phthalimidocarboxanilides as inhibitors of purine salvage phosphoribosyltransferases” (Regents of the University of California, priority 2000, dated 2001)
